Source: ChEMBL document CHEMBL5214978, “Identification of 1,4-Benzodiazepine-2,5-dione Derivatives as Potential Protein Synthesis Inhibitors with Highly Potent Anticancer Activity” (J Med Chem, 2022)

What was measured:
Type in all cases: functional
[1] = system: SF-295; assay: Anticancer activity against human SF-295 cells assessed as cell growth inhibition measured after 48 hrs by SRB assay
[2] = system: Panel NCI-60 (60 carcinoma cell lines); assay: Anticancer activity against human Panel NCI-60 (60 carcinoma cell lines) line assessed as cell growth inhibition measured after 48 hrs by SRB assay
[3] = system: HCT-116; assay: Anticancer activity against human HCT-116 cells assessed as cell growth inhibition measured after 48 hrs by SRB assay
[4] = system: 786-0; assay: Anticancer activity against human 786-0 cells assessed as cell growth inhibition measured after 48 hrs by SRB assay
[5] = system: A549; assay: Anticancer activity against human A549 cells assessed as cell growth inhibition measured after 48 hrs by SRB assay
[6] = system: LOX IMVI; assay: Anticancer activity against human LOX IMVI cells assessed as cell growth inhibition measured after 48 hrs by SRB assay

Row | Structure (SMILES) | GI50 [1] [nM] | GI50 [2] [nM] | GI50 [3] [nM] | GI50 [4] [nM] | GI50 [5] [nM] | GI50 [6] [nM]
1 | COC(=O)C[C@H]1NC(=O)c2cc(Oc3cc(C)cc(C)c3)c(NC(=O)c3cc(OC)c(OC)c(OC)c3)cc2NC1=O | > 50000 | > 50000 | > 50000 | > 50000 | > 50000 | > 50000
2 | COC(=O)C[C@@H]1NC(=O)c2cc(Oc3cc(C)cc(C)c3)c(NC(=O)c3cc(OC)cc(OC)c3)cc2NC1=O | 80 | 240 | 200 | 150 | 150 | 240
3 | CCOC(=O)C1NC(=O)c2cc(Oc3cc(C)cc(C)c3)c(NC(=O)c3cc(OC)c(OC)c(OC)c3)cc2NC1=O (configuration not stated) | > 50000 | > 50000 | > 50000 | > 50000 | > 50000 | > 50000
4 | COc1cc(C(=O)Nc2cc3c(cc2Oc2cc(C)cc(C)c2)C(=O)N[C@@H](CC(=O)O)C(=O)N3)cc(OC)c1OC | > 50000 | > 50000 | > 50000 | > 50000 | > 50000 | > 50000
5 | COC(=O)C[C@@H]1NC(=O)c2cc(Oc3ccc4c(c3)CCC4)c(NC(=O)c3cc(OC)c(OC)c(OC)c3)cc2NC1=O | 990 | 1860 | 1710 | 2130 | 1400 | 1930
6 | CCN(CC)C(=O)C[C@H]1C(=O)Nc2cc(NC(=O)c3cc(OC)c(OC)c(OC)c3)c(Oc3cc(C)cc(C)c3)cc2C(=O)N1C | 10 | 23 | 21 | 41 | 17 | 18
7 | COc1cc(C(=O)Nc2cc3c(cc2Oc2cc(C)cc(C)c2)C(=O)N[C@@H](CC(=O)N(C)C)C(=O)N3)cc(OC)c1OC | 110 | 60 | 30 |  | 140 | 20
8 | COc1cc(C(=O)Nc2cc3c(cc2Oc2cc(C)cc(C)c2)C(=O)N[C@@H](Cc2ncnn2C)C(=O)N3)cc(OC)c1OC | 180 | 160 | 90 | 36000 | 470 | 70
9 | CCN(CC)C(=O)C[C@H]1C(=O)Nc2cc(NC(=O)c3cc(OC)c(OC)c(OC)c3Cl)c(Oc3cc(C)c(F)c(C)c3)cc2C(=O)N1C | 19 | 18 | 22 | 30 | 21 | 9
10 | CCN(CC)C(=O)C[C@@H]1NC(=O)c2cc(Oc3cc(C)cc(C)c3)c(NC(=O)c3c(F)c(OC)c(OC)c(OC)c3Cl)cc2NC1=O | 40 | 23 | 17 | 61 | 15 | 7
11 | COC(=O)C[C@@H]1NC(=O)c2cc(Oc3ccc(F)cc3)c(NC(=O)c3cc(OC)c(OC)c(OC)c3)cc2NC1=O | > 50000 | > 50000 | > 50000 | > 50000 | > 50000 | > 50000
12 | CCN(CC)C(=O)C[C@@H]1NC(=O)c2cc(Oc3cc(C)c(F)c(C)c3)c(NC(=O)c3cc(OC)c(OC)c(OC)c3Cl)cc2NC1=O | 27 | 16 | 17 | 61 | 26 | 8
13 | COc1cc(C(=O)Nc2cc3c(cc2Oc2cc(C)cc(C)c2)C(=O)N[C@@H](Cc2nnc(C)o2)C(=O)N3)cc(OC)c1OC | 940 | 1580 | 1260 | 1420 | 1380 | 1280
14 | COC(=O)C[C@@H]1NC(=O)c2cc(Oc3ccccc3)c(NC(=O)c3cc(OC)c(OC)c(OC)c3)cc2NC1=O | > 50000 | > 50000 | > 50000 | > 50000 | > 50000 | > 50000
15 | CCN(CC)C(=O)C[C@H]1C(=O)Nc2cc(NC(=O)c3c(Cl)c(OC)c(OC)c(OC)c3Br)c(Oc3cc(C)cc(C)c3)cc2C(=O)N1C | 68 | 68 | 70 | 87 | 74 | 39
16 | COC(=O)C[C@@H]1NC(=O)c2cc(Oc3cc(C)cc(F)c3)c(NC(=O)c3cc(OC)c(OC)c(OC)c3)cc2NC1=O | 150 | 180 | 160 | 160 | 140 | 190
17 | CCCCOC(=O)C[C@@H]1NC(=O)c2cc(Oc3cc(C)cc(C)c3)c(NC(=O)c3cc(OC)c(OC)c(OC)c3)cc2NC1=O | 1910 |  | 510 | 1910 | 1860 | 3980
18 | CCN(CC)C(=O)C[C@@H]1NC(=O)c2cc(Oc3cc(C)cc(C)c3)c(NC(=O)c3cc(OC)c(OC)c(OC)c3Br)cc2NC1=O | < 5 | < 5 | > 5 | 7 | < 5 | < 5
19 | CCN(CC)C(=O)C[C@@H]1NC(=O)c2cc(Oc3cc(C)cc(C)c3)c(NC(=O)c3cc(OC)c(OC)c(OC)c3)cc2NC1=O | 20 | 30 | 20 | 90 | 20 | 20

Row | Structure (SMILES) | GI50 [1] [nM] | GI50 [2] [nM] | GI50 [3] [nM] | GI50 [4] [nM] | GI50 [5] [nM] | GI50 [6] [nM]
20 | COC(=O)C[C@@H]1NC(=O)c2cc(C#Cc3cc(C)cc(C)c3)c(NC(=O)c3cc(OC)c(OC)c(OC)c3)cc2NC1=O | > 50000 | > 50000 | > 50000 | > 50000 | > 50000 | > 50000
21 | CCN(CC)C(=O)C[C@@H]1NC(=O)c2cc(Oc3cc(C)c(Br)c(C)c3)c(NC(=O)c3cc(OC)c(OC)c(OC)c3)cc2NC1=O |  | 234 | 172 | 1000 | 243 | 128
22 | COC(=O)C[C@@H]1NC(=O)c2cc(Oc3ccc(C)c(C)c3)c(NC(=O)c3cc(OC)c(OC)c(OC)c3)cc2NC1=O | 1010 | 1910 | 2010 | 2400 | 1520 | 2550
23 | COC(=O)C[C@@H]1NC(=O)c2cc(Oc3cc(C)cc(C)c3)c(NC(=O)c3ccc(OC)c(OC)c3OC)cc2NC1=O | > 50000 | > 50000 | > 50000 | > 50000 | > 50000 | > 50000
24 | COC(=O)C[C@@H]1NC(=O)c2cc(Oc3ccc(C(F)(F)F)cc3)c(NC(=O)c3cc(OC)c(OC)c(OC)c3)cc2NC1=O | > 50000 | > 50000 | > 50000 | > 50000 | > 50000 | > 50000
25 | COC(=O)C[C@@H]1NC(=O)c2cc(Oc3ccc(OC)cc3)c(NC(=O)c3cc(OC)c(OC)c(OC)c3)cc2NC1=O | > 50000 | > 50000 | > 50000 | > 50000 | > 50000 | > 50000
26 | CCN(CC)C(=O)C[C@@H]1NC(=O)c2cc(Oc3cc(C)cc(C)c3)c(NC(=O)c3cc(OC)c(OC)c(OC)c3Cl)cc2NC1=O | 23 |  | < 13 | 40 | 17 | < 5
27 | COC(=O)C[C@@H]1NC(=O)c2cc(Oc3cc(C)cc(C)c3)c(NCc3cc(OC)c(OC)c(OC)c3)cc2NC1=O | > 50000 | > 50000 | > 50000 | > 50000 | > 50000 | > 50000
28 | COC(=O)C[C@@H]1NC(=O)c2cc(OC)c(NC(=O)c3cc(OC)c(OC)c(OC)c3)cc2NC1=O | > 50000 | > 50000 | > 50000 | > 50000 | > 50000 | > 50000
29 | COC(=O)C[C@@H]1NC(=O)c2cc(Oc3cc(C)ccc3C)c(NC(=O)c3cc(OC)c(OC)c(OC)c3)cc2NC1=O | 960 | 1350 | 1340 | 1280 | 1170 | 1360
30 | COC(=O)C[C@@H]1NC(=O)c2cc(Oc3cccc(N(C)C)c3)c(NC(=O)c3cc(OC)c(OC)c(OC)c3)cc2NC1=O | 3090 | 4680 | 5250 | 14900 | 3410 | 5260
31 | COc1cc(C(=O)Nc2cc3c(cc2Oc2cc(C)cc(C)c2)C(=O)N[C@@H](CC(=O)N2CCN(C)CC2)C(=O)N3)cc(OC)c1OC | 670 | 1580 | 140 | 1570 | 180 | 90
32 | COC(=O)C[C@@H]1NC(=O)c2cc(Oc3cc(C)cc(C)c3)c(NC(=O)c3ccc(F)cc3)cc2NC1=O | > 50000 | > 50000 | > 50000 | > 50000 | > 50000 | > 50000
33 | CCCCN(CCCC)C(=O)C[C@@H]1NC(=O)c2cc(Oc3cc(C)cc(C)c3)c(NC(=O)c3cc(OC)c(OC)c(OC)c3)cc2NC1=O | 320 |  | 460 | 360 | 360 | 340
34 | CCN(CC)C(=O)C[C@H]1C(=O)Nc2cc(NC(=O)c3cc(OC)c(OC)c(OC)c3Cl)c(Oc3cc(C)cc(C)c3)cc2C(=O)N1C | 12 | 17 | 13 | 10 | 9 | < 5
35 | CCc1nc(C[C@@H]2NC(=O)c3cc(Oc4cc(C)cc(C)c4)c(NC(=O)c4cc(OC)c(OC)c(OC)c4)cc3NC2=O)no1 | 120 | 360 | 330 | 660 | 270 | 240
36 | COC(=O)C[C@@H]1NC(=O)c2cc(OCc3cc(C)cc(C)c3)c(NC(=O)c3cc(OC)c(OC)c(OC)c3)cc2NC1=O | 1500 | 3020 | 2820 | 4780 | 1810 | 2990
37 | COC(=O)C[C@@H]1NC(=O)c2cc(OCc3ccccc3)c(NC(=O)c3cc(OC)c(OC)c(OC)c3)cc2NC1=O | > 50000 | > 50000 | > 50000 | > 50000 | > 50000 | > 50000
